These results are taken from publication PMC4049246 (The Journal of Organic Chemistry, 2014).

One series deals with ERBB2 (Homo sapiens, UniProt P04626). Put plainly: Inhibition of NRGβ1-induced ERBB2 tyrosine phosphorylation in MCF7 cells. The series is classed as cell-based. To be noted: for inhibition of NRGβ1-induced phosphorylation of ERBB2: MCF7 cells.
Series [1] can be described thus: Octanol/water partition coefficient. The series is classed as physicochemical.
Series [2] can be described thus: UV-vis absorption, fluorescence emission and lifetime in chloroform. As to conditions: for Δν / ε / ϕem: CHCl3; for ϕem: ±10%, perylene in cyclohexane as reference; for τ1: fluorescence lifetime component 1; for τ2: fluorescence lifetime component 2; for f1: fraction of lifetime component 1; for f2: fraction of lifetime component 2.
The conditions of series [3]: physiologically relevant concentrations; cited from earlier work.

ERBB2, sequence (P04626 23-1255): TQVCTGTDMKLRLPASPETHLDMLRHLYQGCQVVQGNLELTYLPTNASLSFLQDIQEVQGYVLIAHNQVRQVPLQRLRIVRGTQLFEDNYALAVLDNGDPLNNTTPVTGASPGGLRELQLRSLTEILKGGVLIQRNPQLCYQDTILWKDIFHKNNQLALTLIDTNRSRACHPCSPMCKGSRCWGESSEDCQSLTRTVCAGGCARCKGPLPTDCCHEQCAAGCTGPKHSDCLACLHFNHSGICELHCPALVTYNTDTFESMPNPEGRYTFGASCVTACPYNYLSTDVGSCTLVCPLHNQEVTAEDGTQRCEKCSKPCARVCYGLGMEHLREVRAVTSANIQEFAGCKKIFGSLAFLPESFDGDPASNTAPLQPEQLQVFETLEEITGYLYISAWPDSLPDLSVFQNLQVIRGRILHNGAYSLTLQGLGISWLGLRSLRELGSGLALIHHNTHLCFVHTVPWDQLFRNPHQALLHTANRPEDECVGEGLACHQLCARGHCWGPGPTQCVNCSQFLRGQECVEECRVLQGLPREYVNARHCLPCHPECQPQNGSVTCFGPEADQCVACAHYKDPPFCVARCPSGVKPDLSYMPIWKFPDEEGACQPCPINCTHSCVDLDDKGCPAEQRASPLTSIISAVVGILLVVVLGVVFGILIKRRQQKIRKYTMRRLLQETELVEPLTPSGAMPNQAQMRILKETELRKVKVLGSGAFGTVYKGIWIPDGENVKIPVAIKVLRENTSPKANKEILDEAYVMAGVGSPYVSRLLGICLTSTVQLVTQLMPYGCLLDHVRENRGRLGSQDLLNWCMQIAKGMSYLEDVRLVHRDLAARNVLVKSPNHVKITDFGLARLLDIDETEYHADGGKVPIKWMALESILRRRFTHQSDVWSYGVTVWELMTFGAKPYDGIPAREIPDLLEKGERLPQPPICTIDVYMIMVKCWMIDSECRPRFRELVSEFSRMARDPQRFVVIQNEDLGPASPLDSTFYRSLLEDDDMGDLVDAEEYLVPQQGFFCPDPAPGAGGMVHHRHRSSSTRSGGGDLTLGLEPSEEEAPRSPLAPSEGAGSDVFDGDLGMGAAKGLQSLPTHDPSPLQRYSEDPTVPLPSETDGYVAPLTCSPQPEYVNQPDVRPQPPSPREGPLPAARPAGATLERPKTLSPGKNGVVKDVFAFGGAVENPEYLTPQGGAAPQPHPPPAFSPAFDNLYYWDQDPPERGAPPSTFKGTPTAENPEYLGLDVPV

`CN(C)c1ccc(-c2ccc3ncnc(Nc4ccccc4)c3c2)cc1` [1a, 6-(4-(Dimethylamino)phenyl)-N-phenylquinazolin-4-amine] gave a Ki at ERBB2 of 10 µM. Also, the “inhibition of NRGβ1-induced phosphorylation of ERBB2” value (from here on “inhibition”) is “little to no inhibitory action” on ERBB2 (100 nM probe) and “showed inhibition” against ERBB2 (10 μM probe). In series [1], the “log Poctanol/water” value came to 1.50.

Turning to `COc1ccc(-c2ccc3ncnc(Nc4ccccc4)c3c2)cc1` [1b, 6-(4-Methoxyphenyl)-N-phenylquinazolin-4-amine], in series [2], the Δν is given as 9130 cm^–1, the ε is 14 300 M^–1 cm^–1, the ϕem is 0.02 and the τ1 is on record as 1.39 ns. For the same compound, in series [2], the τ2 was 6.76 ns, the f1 is listed as 0.70 and the f2 was determined as 0.30.

Turning to `O=[N+]([O-])c1ccc(-c2ccc3ncnc(Nc4ccccc4)c3c2)cc1` [1e, 6-(4-Nitrophenyl)-N-phenylquinazolin-4-amine], in series [2], the Δν is listed as 6480 cm^–1, the ε was 19 700 M^–1 cm^–1, the ϕem was 0.006 and the τ1 came to 0.11 ns. Also, in series [2], the τ2 is given as 1.56 ns, the f1 is given as 0.74 and the f2 is listed as 0.26.

As to `CN(C)c1ccc(/C=C/c2ccc3ncnc(Nc4ccccc4)c3c2)cc1` [2a, (E)-6-(4-Dimethylaminostyryl)-N-phenylquinazolin-4-amine], the “inhibition” value against ERBB2 (100 nM probe) is given as “little to no inhibitory action”; against ERBB2 (10 μM probe), “showed inhibition”.

With `C(=C\c1ccc2ncnc(Nc3ccccc3)c2c1)/c1ccccc1` [2c, (E)-N-Phenyl-6-styrylquinazolin-4-amine], in series [2], the Δν came to 7350 cm^–1, the ε is on record as 21 900 M^–1 cm^–1, the ϕem stood at 0.02 and the τ1 is 0.05 ns. In series [2], this compound showed a τ2 of 1.75 ns, a f1 of 0.11 and a f2 of 0.89.

Regarding `O=[N+]([O-])c1ccc(/C=C/C=C/c2ccc3ncnc(Nc4ccccc4)c3c2)cc1` [3e, 6-((1E,3E)-4-(4-Nitrophenyl)buta-1,3-dienyl)-N-phenylquinazolin-4-amine], the “inhibition” value is on record as “little to no inhibitory action” against ERBB2 (100 nM probe) and “showed inhibition” against ERBB2 (10 μM probe).

For the compound `CS(=O)(=O)CCNCc1ccc(-c2ccc3ncnc(Nc4ccc(OCc5cccc(F)c5)c(Cl)c4)c3c2)o1` [lapatinib], the aggregation entry in series [3] was “significant aggregation”.

Usually Ki stands for a dissociation constant, usually derived from enzyme kinetics or from competition with a known ligand. Read a high Ki as weaker binding.
